Source: ChEMBL document CHEMBL1155823, “The effect of 5-alkyl modification on the biological activity of pyrrolo[2,3-d]pyrimidine containing classical and nonclassical antifolates as inhibitors of dihydrofolate reductase and as antitumor and/or antiopportunistic infection agents” (J Med Chem, 2008)
pIC50: −log10 of the molar value.

Legend:
[1] = biological target: T1, Bifunctional dihydrofolate reductase-thymidylate synthase (Toxoplasma gondii) (UniProt Q07422); assay: Inhibition of Toxoplasma gondii thymidylate synthase at >[…] uM
T1 sequence (whole entry): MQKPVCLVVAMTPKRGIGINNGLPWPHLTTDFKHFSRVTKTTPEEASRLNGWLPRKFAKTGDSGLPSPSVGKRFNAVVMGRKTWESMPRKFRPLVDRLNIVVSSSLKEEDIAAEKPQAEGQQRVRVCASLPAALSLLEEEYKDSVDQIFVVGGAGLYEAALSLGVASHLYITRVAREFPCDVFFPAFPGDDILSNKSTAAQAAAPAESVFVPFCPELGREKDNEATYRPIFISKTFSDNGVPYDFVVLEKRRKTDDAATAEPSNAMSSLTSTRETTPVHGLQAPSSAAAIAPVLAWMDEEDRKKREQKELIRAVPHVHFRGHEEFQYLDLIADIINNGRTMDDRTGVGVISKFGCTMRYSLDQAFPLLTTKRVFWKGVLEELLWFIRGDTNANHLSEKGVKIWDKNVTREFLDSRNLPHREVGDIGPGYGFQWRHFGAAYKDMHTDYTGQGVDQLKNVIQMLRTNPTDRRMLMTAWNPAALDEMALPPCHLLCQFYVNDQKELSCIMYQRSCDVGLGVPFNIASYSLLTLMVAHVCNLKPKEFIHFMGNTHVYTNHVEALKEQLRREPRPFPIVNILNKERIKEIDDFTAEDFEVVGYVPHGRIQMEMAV

[2] = biological target: T2, Dihydrofolate reductase (Homo sapiens) (UniProt P00374); assay: Inhibition of human dihydrofolate reductase at >[…] uM
T2 sequence (whole entry): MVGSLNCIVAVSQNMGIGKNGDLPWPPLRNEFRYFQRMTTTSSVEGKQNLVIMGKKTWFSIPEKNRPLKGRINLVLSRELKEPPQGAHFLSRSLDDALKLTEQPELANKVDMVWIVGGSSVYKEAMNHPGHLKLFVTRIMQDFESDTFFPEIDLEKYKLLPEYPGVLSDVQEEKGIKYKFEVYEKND

[3] = biological target: Thymidylate synthase (Escherichia coli) (UniProt C3SWJ7); assay: Inhibition of Escherichia coli thymidylate synthase at >[…] uM
Thymidylate synthase [4] = biological target: Thymidylate synthase (Escherichia coli, UniProt C3SWJ7); assay: Inhibition of Escherichia coli thymidylate synthase
Dihydrofolate reductase [5] = biological target: T3, Dihydrofolate reductase (Homo sapiens, UniProt P00374)
T3 sequence (P00374 whole entry): T2 sequence (whole entry)

[6] = biological target: T4, Bifunctional dihydrofolate reductase-thymidylate synthase (Toxoplasma gondii, UniProt Q07422); assay: Inhibition of Toxoplasma gondii dihydrofolate reductase
T4 sequence (Q07422 whole entry): T1 sequence (whole entry)

Dihydrofolate reductase [7] = biological target: T5, Dihydrofolate reductase (Rattus norvegicus, UniProt Q920D2)
T5 sequence (Q920D2 whole entry): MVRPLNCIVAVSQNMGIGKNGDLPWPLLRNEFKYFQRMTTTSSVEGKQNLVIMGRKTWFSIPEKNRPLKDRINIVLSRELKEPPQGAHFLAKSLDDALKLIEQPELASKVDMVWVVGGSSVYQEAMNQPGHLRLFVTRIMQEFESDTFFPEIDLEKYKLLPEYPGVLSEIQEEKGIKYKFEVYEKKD

[8] = biological target: T4, Bifunctional dihydrofolate reductase-thymidylate synthase; assay: Inhibition of Toxoplasma gondii thymidylate synthase
Thymidylate synthase [9] = biological target: T6, Thymidylate synthase (Homo sapiens, UniProt P04818); assay: Inhibition of human thymidylate synthase at >23 uM
Target sequence in this assay (P04818 2-313 limits assumed): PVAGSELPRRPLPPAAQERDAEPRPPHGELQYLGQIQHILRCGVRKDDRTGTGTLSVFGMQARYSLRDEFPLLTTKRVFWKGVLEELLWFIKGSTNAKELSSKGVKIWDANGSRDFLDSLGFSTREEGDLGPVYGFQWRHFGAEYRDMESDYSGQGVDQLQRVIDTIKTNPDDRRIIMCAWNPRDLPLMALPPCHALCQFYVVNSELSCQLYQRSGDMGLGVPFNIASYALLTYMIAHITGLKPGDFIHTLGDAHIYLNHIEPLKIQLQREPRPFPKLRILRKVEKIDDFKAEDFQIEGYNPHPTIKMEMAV

Thymidylate synthase [10] = biological target: T6, Thymidylate synthase; assay: Inhibition of human thymidylate synthase
Target sequence in this assay (P04818 whole entry): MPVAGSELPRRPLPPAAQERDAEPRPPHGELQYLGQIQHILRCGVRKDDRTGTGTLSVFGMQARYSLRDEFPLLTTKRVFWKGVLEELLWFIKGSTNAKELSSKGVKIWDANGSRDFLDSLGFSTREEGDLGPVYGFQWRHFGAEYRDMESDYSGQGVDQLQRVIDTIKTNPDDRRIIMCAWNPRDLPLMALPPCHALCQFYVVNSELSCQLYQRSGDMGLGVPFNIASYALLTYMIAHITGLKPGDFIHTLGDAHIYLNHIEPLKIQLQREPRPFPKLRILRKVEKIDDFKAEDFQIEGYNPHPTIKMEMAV

Dihydrofolate reductase [11] = biological target: T7, Dihydrofolate reductase (Pneumocystis carinii, UniProt P16184)
T7 sequence (P16184 whole entry): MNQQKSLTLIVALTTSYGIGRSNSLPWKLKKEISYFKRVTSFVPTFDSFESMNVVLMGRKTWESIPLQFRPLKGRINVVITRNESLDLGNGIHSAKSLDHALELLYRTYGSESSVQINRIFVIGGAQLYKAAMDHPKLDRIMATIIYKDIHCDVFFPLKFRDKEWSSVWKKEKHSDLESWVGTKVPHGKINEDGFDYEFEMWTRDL
Description: (§1) Inhibition of Pneumocystis carinii DHFR using dihydrofolic acid substrate and NADPH cofactor

[12] = biological target: Thymidylate synthase (Escherichia coli) (UniProt C3SWJ7); assay: Inhibition of Escherichia coli thymidylate synthase at >14 uM
Thymidylate synthase [13] = biological target: T6, Thymidylate synthase; assay: Inhibition of human thymidylate synthase at >14 uM
Target sequence in this assay (P04818 2-313 limits assumed): as the sequence (P04818 2-313 limits assumed) above

Thymidylate synthase [14] = biological target: T6, Thymidylate synthase; assay: Inhibition of human thymidylate synthase at >[…] uM
Target sequence in this assay (P04818 2-313 limits assumed): as above

[15] = biological target: Dihydrofolate reductase (Pneumocystis carinii) (UniProt P16184); assay: Inhibition of Pneumocystis carinii DHFR at […] using dihydrofolic acid substrate and NADPH cofactor
Dihydrofolate reductase [16] = biological target: T7, Dihydrofolate reductase; remark: listed apart in the source
Description: as §1

[17] = biological target: T2, Dihydrofolate reductase (Homo sapiens); assay: Inhibition of human dihydrofolate reductase at >28 uM
[18] = biological target: Dihydrofolate reductase (Pneumocystis carinii) (UniProt P16184); assay: Inhibition of Pneumocystis carinii DHFR at 22 uM using dihydrofolic acid substrate and NADPH cofactor
cells = conditions: Homo sapiens, HL-60
Description: Cytotoxicity against human HL60(TB) cells

CAKI-1 = assay: cells; conditions: Homo sapiens
Description: Cytotoxicity against human CAKI1 cells

HT-29 = assay: cells; conditions: Homo sapiens
Description: Cytotoxicity against human HT29 cells

K562 = assay: cells; conditions: Homo sapiens
Description: Cytotoxicity against human K562 cells

SF-268 = assay: cells; conditions: Homo sapiens
Description: Cytotoxicity against human SF268 cells

PC-3 = assay: cells; conditions: Homo sapiens
Description: Cytotoxicity against human PC3 cells

SW-620 = assay: cells; conditions: Homo sapiens
Description: Cytotoxicity against human SW620 cells

LOX IMVI = assay: cells; conditions: Homo sapiens
Description: Cytotoxicity against human LOXIMVI cells

ACHN = assay: cells; conditions: Homo sapiens
Description: Cytotoxicity against human ACHN cells

MOLT-4 = assay: cells; conditions: Homo sapiens
Description: Cytotoxicity against human MOLT4 cells

MCF7 = assay: cells; conditions: Homo sapiens
Description: Cytotoxicity against human MCF7 cells

NCI-H460 = assay: cells; conditions: Homo sapiens
Description: Cytotoxicity against human NCI-H460 cells

786-0 = assay: cells; conditions: Homo sapiens
Dihydrofolate reductase [19] = biological target: T5, Dihydrofolate reductase; remark: listed apart in the source
[20] = biological target: T2, Dihydrofolate reductase (Homo sapiens); assay: Inhibition of human dihydrofolate reductase at >30 uM

Chain of Thymidylate synthase (Escherichia coli, UniProt C3SWJ7) (C3SWJ7 whole entry): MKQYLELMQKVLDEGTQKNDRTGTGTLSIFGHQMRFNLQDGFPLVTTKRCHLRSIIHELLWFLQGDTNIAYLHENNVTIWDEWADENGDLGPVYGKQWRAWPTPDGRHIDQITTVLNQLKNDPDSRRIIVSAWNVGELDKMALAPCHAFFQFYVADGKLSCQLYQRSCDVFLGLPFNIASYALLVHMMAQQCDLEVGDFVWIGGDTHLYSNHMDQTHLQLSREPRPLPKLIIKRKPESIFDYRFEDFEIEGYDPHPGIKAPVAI
Chain of Thymidylate synthase (Escherichia coli) (C3SWJ7 1-264): as the sequence (C3SWJ7 whole entry) above

Structure (SMILES)	inhibition [1] [%]	inhibition [3] [%]	pIC50 (Thymidylate synthase [4])	pIC50 (Dihydrofolate reductase [5])	pIC50 [6]	pIC50 (Dihydrofolate reductase [7])	pIC50 [8]	pIC50 (Thymidylate synthase [10])	pIC50 (Dihydrofolate reductase [11])	inhibition (Thymidylate synthase [14]) [%]	also measured
CC(C)c1c(Sc2ccc(Cl)c(Cl)c2)[nH]c2nc(N)nc(N)c12	0	0	< 5.64	< 4.57	5.85	4.87	< 5.64	< 4.64	4.96	–	inhibition [2]: 0%; inhibition (Thymidylate synthase [9]): 14%
CCCc1c(Sc2ccccc2)[nH]c2nc(N)nc(N)c12	–	–	< 4.85	4.48	6.92	–	< 5.85	< 4.85	5.38	–	inhibition [12]: 0%; inhibition (Thymidylate synthase [13]): 0%
CC(C)c1c(Sc2cccc3ccccc23)[nH]c2nc(N)nc(N)c12	0	–	< 4.92	< 4.54	6.92	6.04	< 4.92	< 4.92	6.17	0	–
CCCc1c(Sc2ccc3ccccc3c2)[nH]c2nc(N)nc(N)c12	–	–	< 4.92	< 4.82	6.82	5.42	< 4.82	< 4.92	–	0	inhibition [2]: 30%; inhibition [15]: 16%; pIC50 (Dihydrofolate reductase [16]): 5.46
COc1ccc(OC)c(Cc2sc3nc(N)nc(N)c3c2C)c1	–	–	–	–	7.15	–	–	–	–	–	–
CCCc1c(Sc2cc(OC)ccc2OC)[nH]c2nc(N)nc(N)c12	0	–	< 4.92	< 4.55	–	5.05	–	–	4.98	0	inhibition [17]: 13%
CCCc1c(Sc2c(C)cccc2C)[nH]c2nc(N)nc(N)c12	–	–	< 4.62	5.52	–	5.61	–	< 4.62	5.27	–	–
CC(C)c1c(Sc2c(Cl)cccc2Cl)[nH]c2nc(N)nc(N)c12	–	–	< 5.66	< 4.59	6.28	5.62	< 5.66	< 4.66	–	–	inhibition [2]: 37%; inhibition [18]: 14%; pIC50 (Dihydrofolate reductase [16]): 4.66
CCCc1c(Sc2c(Cl)cccc2Cl)[nH]c2nc(N)nc(N)c12	–	0	< 4.66	5.59	–	5.23	–	< 4.66	5.27	–	–
COc1ccc(Sc2[nH]c3nc(N)nc(N)c3c2C(C)C)cc1OC	0	0	< 5.64	4.57	5.57	5.34	< 5.64	< 4.64	4.55	–	inhibition (Thymidylate synthase [9]): 0%
CCCc1c(Sc2ccc(OC)c(OC)c2)[nH]c2nc(N)nc(N)c12	–	0	< 4.96	< 4.59	6.00	5.46	< 4.96	< 4.96	5.07	0	inhibition [2]: 35%
COc1ccc(OC)c(Sc2[nH]c3nc(N)nc(N)c3c2C(C)C)c1	0	0	< 5.64	< 4.55	5.85	4.30	< 5.64	< 4.64	4.45	–	inhibition (Thymidylate synthase [9]): 0%; inhibition [17]: 0%
CCCc1c(Sc2cccc3ccccc23)[nH]c2nc(N)nc(N)c12	16	–	< 4.92	< 4.54	7.24	5.19	< 4.92	< 4.92	5.07	0	–
CCCc1c(Sc2ccc(C(=O)N[C@@H](CCC(=O)O)C(=O)O)cc2)[nH]c2nc(N)nc(N)c12	–	–	–	–	–	7.22	–	–	8.51	–	GI50 (cells): 1.28 µM; GI50 (CAKI-1): 0.376 µM; GI50 (HT-29): 9.58 µM; GI50 (K562): 0.952 µM; GI50 (SF-268): 1.61 µM; GI50 (PC-3): > 100 µM; GI50 (SW-620): 1.21 µM; GI50 (LOX IMVI): < 0.01 µM; GI50 (ACHN): 15.2 µM; GI50 (MOLT-4): 19.4 µM; GI50 (MCF7): 0.164 µM; GI50 (NCI-H460): 0.267 µM; GI50 (786-0): 0.0128 µM
COc1ccc(Sc2[nH]c3nc(N)nc(N)c3c2C(C)C)cc1	–	0	< 5.60	4.52	6.22	5.72	< 5.60	< 4.60	–	–	–
CCc1c(Sc2ccccc2)[nH]c2nc(N)nc(N)c12	–	–	–	–	–	–	–	–	–	–	pIC50 (Dihydrofolate reductase [19]): 5.25; pIC50 (Dihydrofolate reductase [16]): 4.66
Cc1cccc(C)c1Sc1[nH]c2nc(N)nc(N)c2c1C(C)C	0	0	< 4.89	< 4.52	6.52	4.83	< 4.89	< 4.89	–	–	inhibition [20]: 10%
CC(C)c1c(Sc2ccc3ccccc3c2)[nH]c2nc(N)nc(N)c12	–	0	< 5.62	< 4.54	5.82	5.68	< 5.62	< 4.62	5.15	39	–
CC(C)c1c(Sc2ccccc2)[nH]c2nc(N)nc(N)c12	0	0	< 5.57	4.80	7.19	5.70	< 5.57	< 4.57	4.95	0	–
CCCc1c(Sc2ccc(OC)cc2)[nH]c2nc(N)nc(N)c12	12	0	< 4.89	< 4.52	6.64	5.90	< 4.89	< 4.89	5.38	–	inhibition [20]: 15%
CCc1c(Sc2cc(OC)ccc2OC)[nH]c2nc(N)nc(N)c12	–	–	–	–	–	–	–	–	–	–	pIC50 (Dihydrofolate reductase [19]): 5.39; pIC50 (Dihydrofolate reductase [16]): 5.22
